Here are results for one compound from US20240400549A1, “COMPOUNDS AND THEIR USES FOR TREATING NEURODEGENERATIVE DISEASE” (Academia Sinica, priority 2021, published 2024).

SMILES strings stand for the structures.

In series [1] the target is T1, endogenous TDP-43 protein (FL-TDP-43) (Mus musculus, UniProt Q921F2).
T1 construct: the level of endogenous TDP-43 protein (FL-TDP-43); endogenous in cells; host or cells: Neuro-2a (mouse neuroblastoma), also transfected with eGFP-C-TDP-43
As to the kind of experiment: Level of endogenous TDP-43 protein (FL-TDP-43) in Neuro-2a cells. The series is classed as cell-based. The conditions noted are these: mock control 0.91±0.07. The procedure: Mouse neuroblastoma cell line (Neuro-2a) were cultured in Dulbecco's modified Eagle's medium (DMEM; Gibco) containing 2×10^−3 M glutamine, 10% heat inactivated fetal bovine serum (FBS), and 100 U mL^−1 penicillin-streptomycin (Gibco) at 37° C. in a humidified incubator containing 5% CO2. Alternatively, Neuro-2a cells were cultured in Dulbecco's modified Eagle's medium (DMEM; Invitrogen, Carlsbad, CA, USA) supplemented with 10% heat-inactivated FBS. The cells were incubated in a humidified incubator at 37° C. with 10% CO2. Transfection was performed using T-Pro NTR II (Ji-Feng Biotechnology, Taiwan) following the manufacturer's protocol.
Neuro-2a cells were seeded in a 6-well plate at a concentration of 2×10^5 cells/well and incubated overnight. Once the cells were attached, Neuro-2a cells were transfected with the eGFP-C-TDP-43 plasmid (2.2 μg) using Turbofect transfection reagent (Invitrogen) and treated with or without 5 μM test compound after 2 h transfection. After incubation for another 22 h, the transfected cells were harvested by RIPA buffer containing protease inhibitor (Roche) and sonicated on ice for 10 seconds. […] Aggregated eGFP-C-TDP-43 protein trapped by the CA membranes was determined by immunoblotting. […]
Proteins were separated using 12% Tris-glycine SDS-PAGE. […] The signals were visualized with luminescence (iBright™ FL1000 instrument, Invitrogen). […]

Series [2] deals with T2, eGFP-C-TDP-43 (Homo sapiens, UniProt Q13148).
T2 construct: expressed in transfected cells; host or cells: Neuro-2a (mouse neuroblastoma)
T2 sequence (Q13148 208-414 limits assumed): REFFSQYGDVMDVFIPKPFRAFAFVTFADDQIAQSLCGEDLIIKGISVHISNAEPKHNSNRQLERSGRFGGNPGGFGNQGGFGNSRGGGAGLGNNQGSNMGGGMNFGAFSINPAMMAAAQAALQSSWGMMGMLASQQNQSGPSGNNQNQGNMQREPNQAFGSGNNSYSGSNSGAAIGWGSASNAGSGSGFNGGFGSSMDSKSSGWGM
The experiment in a line: SDS-PAGE dose dependency of eGFP-C-TDP-43 degradation. The series is classed as cell-based, mouse. Particulars: Neuro-2a cells. The procedure: Proteins were separated using 12% Tris-glycine SDS-PAGE. Proteins were transferred onto PVDF membrane (Millipore). Blots were blocked with 5% bovine serum albumin (BSA, Sigma) in 0.1% PBST for at least 1 hour. After blocking, blots were subjected to incubation with the primary antibodies TDP-43 (C-terminal) (1:1,000, Proteintech), TDP-43 (1:1,000, Abcam), p-TDP-43 (pS409/410) (1:1,000, Cosmo Bio), GFP (1:1,000, Abcam), All (1:1,000, Invitrogen), GAPDH (1:10,000, GeneTex), or β-actin (1:10,000, GeneTex) in 2% BSA and incubated overnight at 4° C. on a shaker. After washed with PBST, the blots were further incubated with HRP-labelled secondary antibodies (1:3,000, GeneTex) at room temperature for another 1 hour. The blots were washed and developed with electrochemiluminescence (ECL, Millipore). The signals were visualized with luminescence (iBright™ FL1000 instrument, Invitrogen).
Based on the amount of j-actin (internal control) on NC membrane, overexpression of eGFP-C-TDP-43 did induce a significant amount of C-TDP-43 species (mock control, 1.08±0.31, the black bar in FIG. 1, (B)) comparing with that in blank control of Neuro-2a cells (0.38±0.08, the white bar in FIG. 1, (B)). […]

In series [3] the test system is Neuro-2a cells. The experiment in a line: Cytotoxicity of compounds in Neuro-2a cells. The series is classed as cell-based, mouse. The conditions noted are these: 5 μM concentration.

T1 sequence (Q921F2 whole entry): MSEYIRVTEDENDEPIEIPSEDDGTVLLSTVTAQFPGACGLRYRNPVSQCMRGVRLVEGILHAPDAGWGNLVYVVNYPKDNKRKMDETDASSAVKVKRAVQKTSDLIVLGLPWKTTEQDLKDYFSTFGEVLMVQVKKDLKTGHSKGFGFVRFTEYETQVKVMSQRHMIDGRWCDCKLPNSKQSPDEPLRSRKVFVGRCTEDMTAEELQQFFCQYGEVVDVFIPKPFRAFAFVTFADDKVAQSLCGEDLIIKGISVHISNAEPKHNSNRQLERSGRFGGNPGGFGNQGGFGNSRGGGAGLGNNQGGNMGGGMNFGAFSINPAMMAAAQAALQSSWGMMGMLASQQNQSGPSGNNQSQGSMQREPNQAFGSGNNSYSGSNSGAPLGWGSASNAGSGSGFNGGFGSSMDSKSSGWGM

Consider `CN(C)c1ccc(-c2nc3ccc(OCCOCCOCCNc4cccc5c4C(=O)N(C4CCC(=O)NC4=O)C5=O)cc3s2)cc1` (stereo not drawn) [I-1b, 4-((2-(2-(2-((2-(4-(dimethylamino)phenyl)benzo[d]thiazol-6-yl)oxy)ethoxy)ethoxy)ethyl)amino)-2-(2,6-dioxopiperidin-3-yl)isoindoline-1,3-dione], for which the “level of endogenous TDP-43 protein (FL-TDP-43)” value in series [1] was determined as 1.11±0.14. Further, the “degradation of eGFP-C-TDP-43, dose dependency” value in series [2] is “degraded eGFP-C-TDP-43 in a dose-dependent manner”. In series [3], the “cytotoxicity comparing to mock group of Neuro-2a cells” value is listed as “neglectable cytotoxicity”.
